From ChEMBL document CHEMBL3596110, “Design of glycosyltransferase inhibitors targeting human O-GlcNAc transferase (OGT)” (Medchemcomm, 2014)
Activity calls are given as the source filed them. No cut-off for these calls is given here.

What was measured:
[1] = molecular target: T1, UDP-N-acetylglucosamine--peptide N-acetylglucosaminyltransferase 110 kDa subunit (Homo sapiens) (UniProt O15294); assay: Inhibition of human OGT using [3H]-UDP-GlcNAc as donor and recombinant nup2 as acceptor at 50 uM by liquid scintillation counting analysis
T1 sequence (whole entry): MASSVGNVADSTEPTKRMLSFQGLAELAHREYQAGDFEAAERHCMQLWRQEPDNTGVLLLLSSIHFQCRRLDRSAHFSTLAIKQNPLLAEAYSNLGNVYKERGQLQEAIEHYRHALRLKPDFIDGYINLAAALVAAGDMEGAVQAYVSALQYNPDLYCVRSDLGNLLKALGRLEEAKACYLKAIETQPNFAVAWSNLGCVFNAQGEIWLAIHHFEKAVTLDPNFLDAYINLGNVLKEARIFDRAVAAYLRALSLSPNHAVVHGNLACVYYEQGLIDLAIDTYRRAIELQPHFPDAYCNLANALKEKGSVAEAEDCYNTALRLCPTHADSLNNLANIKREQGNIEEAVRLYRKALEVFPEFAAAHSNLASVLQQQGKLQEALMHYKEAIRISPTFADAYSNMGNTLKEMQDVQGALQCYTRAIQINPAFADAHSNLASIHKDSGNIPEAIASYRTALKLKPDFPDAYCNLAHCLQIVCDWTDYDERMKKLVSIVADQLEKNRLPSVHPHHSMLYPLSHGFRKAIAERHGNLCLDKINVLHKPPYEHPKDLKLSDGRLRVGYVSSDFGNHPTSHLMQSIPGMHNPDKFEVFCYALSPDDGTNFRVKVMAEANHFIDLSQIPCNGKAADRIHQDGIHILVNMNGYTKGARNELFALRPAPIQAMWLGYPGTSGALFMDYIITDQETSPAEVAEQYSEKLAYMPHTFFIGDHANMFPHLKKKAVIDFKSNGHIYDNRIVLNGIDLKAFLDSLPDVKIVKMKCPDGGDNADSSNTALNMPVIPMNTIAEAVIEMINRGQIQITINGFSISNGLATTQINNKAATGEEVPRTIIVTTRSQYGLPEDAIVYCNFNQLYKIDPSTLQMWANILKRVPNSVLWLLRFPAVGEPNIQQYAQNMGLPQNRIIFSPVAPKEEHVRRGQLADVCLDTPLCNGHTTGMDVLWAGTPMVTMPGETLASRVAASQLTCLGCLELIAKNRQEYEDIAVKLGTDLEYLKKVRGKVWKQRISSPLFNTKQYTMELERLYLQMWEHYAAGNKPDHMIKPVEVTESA

[2] = molecular target: T2, UDP-N-acetylglucosamine--peptide N-acetylglucosaminyltransferase 110 kDa subunit (Homo sapiens, UniProt O15294); assay: Inhibition of human OGT using [3H]-UDP-GlcNAc as donor and recombinant nup2 as acceptor by liquid scintillation counting analysis
T2 sequence (O15294 whole entry): T1 sequence (whole entry)

[3] = molecular target: T2, UDP-N-acetylglucosamine--peptide N-acetylglucosaminyltransferase 110 kDa subunit; assay: Inhibition of human OGT using [3H]-UDP-GlcNAc as donor and recombinant nup2 as acceptor by Dixon plot analysis
[4] = molecular target: T1, UDP-N-acetylglucosamine--peptide N-acetylglucosaminyltransferase 110 kDa subunit (Homo sapiens); assay: Inhibition of OGT in human MCF7 cells assessed as decrease in intracellular O-GlcNAcylated protein level up to 500 uM after 24 to 48 hrs by immunoblot analysis; assay type: cell-based
[5] = molecular target: T1, UDP-N-acetylglucosamine--peptide N-acetylglucosaminyltransferase 110 kDa subunit (Homo sapiens); assay: Inhibition of OGT in human MCF10A cells assessed as decrease in intracellular O-GlcNAcylated protein level up to 500 uM after 24 to 48 hrs by immunoblot analysis; assay type: cell-based; settings: MCF-10A
[6] = molecular target: T1, UDP-N-acetylglucosamine--peptide N-acetylglucosaminyltransferase 110 kDa subunit (Homo sapiens); assay: Inhibition of OGT in human HeLa cells assessed as decrease in intracellular O-GlcNAcylated protein level up to 500 uM after 24 to 48 hrs by immunoblot analysis; assay type: cell-based
[7] = Permeability across POPC liposomes by out-in method; assay type: ADME
[8] = Permeability across POPC liposomes by in-out method; assay type: ADME

| Compound | inhibition [1] [%] | IC50 [2] [µM] | inhibition [4] | further results |
| --- | --- | --- | --- | --- |
| O=C(N[C@@H]1O[C@H](CO)[C@@H](O)[C@H](O)[C@H]1O)c1cccc(Cc2cn(C[C@H]3O[C@@H](n4ccc(=O)[nH]c4=O)[C@H](O)[C@@H]3O)nn2)n1 | 18 | 340 | inactive | Ki [3]: 420 µM; inhibition [5]: inactive; inhibition [6]: inactive; permeability [7]: impermeable; permeability [8]: impermeable |
| CC(=O)N[C@@H]1[C@@H](O)[C@H](O)[C@@H](CO)O[C@H]1n1cc(-c2cccc(C(=O)NC[C@H]3O[C@@H](n4ccc(=O)[nH]c4=O)[C@H](O)[C@@H]3O)n2)nn1 | 9.7 |  | inactive |  |
| O=C(NC[C@H]1O[C@@H](n2ccc(=O)[nH]c2=O)[C@H](O)[C@@H]1O)c1cccc(Br)n1 | 7.6 |  | inactive |  |
| CC(=O)N[C@@H]1[C@@H](O)[C@H](O)[C@@H](CO)O[C@H]1NC(=O)c1cccc(Cc2cn(C[C@H]3O[C@@H](n4ccc(=O)[nH]c4=O)[C@H](O)[C@@H]3O)nn2)n1 | 3 |  | inactive |  |
| O=C(NC[C@H]1O[C@@H](n2ccc(=O)[nH]c2=O)[C@H](O)[C@@H]1O)c1cccc(-c2cn([C@@H]3O[C@H](CO)[C@@H](O)[C@H](O)[C@H]3O)nn2)n1 | 4.2 |  | inactive |  |
| O=C(Oc1ccccc1)n1c(=O)oc2ccc(Cl)cc21 |  | 10 |  |  |
| O=c1ccn([C@@H]2O[C@H](Cn3cc(-c4cccc(Br)n4)nn3)[C@@H](O)[C@H]2O)c(=O)[nH]1 | 15.5 | 710 |  |  |
| CC(=O)N[C@@H]1[C@@H](O)[C@H](O)[C@@H](CO)O[C@@H]1SP(=O)(O)OP(=O)(O)OC[C@H]1O[C@@H](n2ccc(=O)[nH]c2=O)[C@H](O)[C@@H]1O |  |  |  | Ki [3]: 93 µM |
| O=C(NC[C@H]1O[C@@H](n2ccc(=O)[nH]c2=O)[C@H](O)[C@@H]1O)c1cccc(CO[C@@H]2O[C@H](CO)[C@@H](O)[C@H](O)[C@H]2O)n1 |  |  |  | permeability [7]: impermeable; permeability [8]: impermeable |
| O=c1ccn([C@@H]2O[C@H](Cn3cc(-c4cccc(-c5cn([C@@H]6O[C@H](CO)[C@@H](O)[C@H](O)[C@H]6O)nn5)n4)nn3)[C@@H](O)[C@H]2O)c(=O)[nH]1 | 13.3 | 1600 | inactive |  |
| CC(=O)N[C@@H]1[C@@H](O)[C@H](O)[C@@H](CO)S[C@@H]1OP(=O)(O)OP(=O)(O)OC[C@H]1O[C@@H](n2ccc(=O)[nH]c2=O)[C@H](O)[C@@H]1O |  |  |  | Ki [3]: 8 µM |
| CC(=O)N[C@@H]1[C@@H](O)[C@H](O)[C@@H](CO)O[C@H]1n1cc(-c2cccc(-c3cn(C[C@H]4O[C@@H](n5ccc(=O)[nH]c5=O)[C@H](O)[C@@H]4O)nn3)n2)nn1 | 6.7 |  | inactive |  |
